Measured values taken from patent publication US8003694B2, “Crystal of hydroxynorephedrin derivative hydrochloride ¼ hydrate” (Kissei Pharmaceutical Co., Ltd., priority 2005, dated 2011).

Assays:
[1] = Solubility Test (shake flask at 37° C., HPLC); assay type: physicochemical; conditions: for solubility in The First Fluid: first fluid of disintegration test of Japanese Pharmacopoeia; for solubility in The First Fluid / solubility in water: shaken 125 strokes per minute, constant or maximum concentration over 0.5-20 hours
Procedure: Each crystal polymorph (0.4 g), which was prepared by the above method, was taken in 50 mL Erlenmeyer flask respectively, and to the mixture was added 20 mL of the mediums as defined below. The flask was shaken at 125 strokes per minute at 37° C. After 0.5, 1, 2 and 20 hours from the start of shaking, 1.5 mL of the suspension was filtered through a membrane filter (pore size: 0.2 μm). The concentration of the filtrate for each crystal polymorph was determined by HPLC method to determine the solubility. The concentration where the concentration became constant by the temporal measurements of the concentration was determined to be the solubility of each polymorph, and the results are shown in Table 1. […] In the cases of crystalline form F and amorphous form, since these samples were dissolved completely in each medium within 0.5 hours after the start of the test, additional samples were added appropriately to the test flasks at the point of 0.5 hours after the start and the solubility tests were continued. The mediums: water or the first fluid of disintegration test of Japanese Pharmacopoeia (hereinafter referred to as The First Fluid).

[2] = Chemical Stability Test (storage at 60° C. for 1 week, HPLC and appearance); assay type: physicochemical
Procedure: Crystalline form F obtained in Example 1 was stored at 60° C. for 1 week to investigate the chemical stability. As the chemical stability, the residual percentage of ethyl (−)-2-[4-[2-[[(1S,2R)-2-hydroxy-2-(4-hydroxyphenyl)-1-methylethyl]amino]ethyl]-2,5-dimethylphenoxy]-acetate was determined by HPLC, and the change in appearance was also observed.

Question: Which “solubility in The First Fluid” value ([1]; hydrochloride) does the source give for `CCOC(=O)COc1cc(C)c(CCN[C@@H](C)[C@H](O)c2ccc(O)cc2)cc1C.Cl` [amorphous form, ethyl (−)-2-[4-[2-[[(1S,2R)-2-hydroxy-2-(4-hydroxyphenyl)-1-methylethyl]amino]ethyl]-2,5-dimethylphenoxy]acetate hydrochloride] here?
Answer: 2.6 mg/mL

Question: And the solubility in water ([1]; hydrochloride)?
Answer: 17.8 mg/mL

Question: Which “solubility in The First Fluid” value ([1]; hydrochloride) does the source give for `CCOC(=O)COc1cc(C)c(CCN[C@@H](C)[C@H](O)c2ccc(O)cc2)cc1C.Cl` [crystal form A, ethyl (−)-2-[4-[2-[[(1S,2R)-2-hydroxy-2-(4-hydroxyphenyl)-1-methylethyl]amino]-ethyl]-2,5-dimethylphenoxy]acetate hydrochloride] here?
Answer: 2.4 mg/mL

Question: What about the solubility in water ([1]; hydrochloride) of the same compound?
Answer: 10.7 mg/mL

Question: With `CCOC(=O)COc1cc(C)c(CCN[C@@H](C)[C@H](O)c2ccc(O)cc2)cc1C.Cl` [crystal form B, ethyl (−)-2-[4-[2-[[(1S,2R)-2-hydroxy-2-(4-hydroxyphenyl)-1-methylethyl]amino]-ethyl]-2,5-dimethylphenoxy]acetate hydrochloride] as the compound, how does the “solubility in The First Fluid” value ([1]; hydrochloride) read?
Answer: 2.9 mg/mL

Question: And the solubility in water ([1]; hydrochloride)?
Answer: 12.5 mg/mL

Question: For `CCOC(=O)COc1cc(C)c(CCN[C@@H](C)[C@H](O)c2ccc(O)cc2)cc1C.Cl` [crystal form F, ethyl (−)-2-[4-[2-[[(1S,2R)-2-hydroxy-2-(4-hydroxyphenyl)-1-methylethyl]amino]ethyl]-2,5-dimethylphenoxy]acetate hydrochloride ¼ hydrate], which “solubility in The First Fluid relative to crystalline forms A and B and amorphous form” value ([1]; The First Fluid) is on record?
Answer: about 5 times

Question: And the “solubility in The First Fluid” value ([1]; hydrate)?
Answer: 11.8 mg/mL

Question: And the solubility in water ([1]; hydrate)?
Answer: 24.3 mg/mL

Question: What about the appearance ([2]; after 1 week at 60° C.) of the same compound?
Answer: white

Question: And the “residual percentage (chemical purity %)” value ([2]; after 1 week at 60° C.)?
Answer: 98.1%

Question: What about the appearance ([2]; at start) of the same compound?
Answer: white

Question: And the “residual percentage (chemical purity %)” value ([2]; at start)?
Answer: 98.1%

Question: What about the “changes in chemical purity and appearance” value ([2]; stored at 60° C. for 1 week) of the same compound?
Answer: no changes
